Source: ChEMBL document CHEMBL1201862, “PubChem BioAssay data set” (2004)
The source made the active and inactive calls.

Columns and labels:
Prothrombin = Prothrombin (Homo sapiens, UniProt P00734); test: Thrombin 1536 HTS Dose Response Confirmation. [Related pubchem assays: 1046 (Thrombin 1536 HTS; hits were confirmed in this assay)]; format: functional
[1] = molecular target: T1, Tyrosine-protein phosphatase non-receptor type 7 (Homo sapiens, UniProt P35236); test: inhibitors of human HePTP phosphatase, […], biochemical, absorbance, leukemia target (AID 521); format: functional
T1 sequence (P35236 whole entry): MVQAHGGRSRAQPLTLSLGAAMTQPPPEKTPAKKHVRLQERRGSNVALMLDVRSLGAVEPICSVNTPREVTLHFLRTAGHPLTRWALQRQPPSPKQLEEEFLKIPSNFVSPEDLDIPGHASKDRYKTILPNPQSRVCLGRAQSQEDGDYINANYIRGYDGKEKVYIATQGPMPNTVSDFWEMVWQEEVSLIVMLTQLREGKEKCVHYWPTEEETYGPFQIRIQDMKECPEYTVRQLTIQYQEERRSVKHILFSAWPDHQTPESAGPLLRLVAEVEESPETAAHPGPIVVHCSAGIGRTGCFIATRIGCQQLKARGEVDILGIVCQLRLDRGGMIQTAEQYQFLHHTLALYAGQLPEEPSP

[2] = molecular target: Eukaryotic translation initiation factor 4E (Mus musculus, UniProt P63073); test: eIF4E–eIF4G protein interaction inhibitors, dose response, biochemical, TR-FRET (AID 855); format: functional;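 further: potency for disrupting eIF4E binding to eIF4GI seen as loss of FRET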
Chain of Eukaryotic translation initiation factor 4E (P63073 whole entry): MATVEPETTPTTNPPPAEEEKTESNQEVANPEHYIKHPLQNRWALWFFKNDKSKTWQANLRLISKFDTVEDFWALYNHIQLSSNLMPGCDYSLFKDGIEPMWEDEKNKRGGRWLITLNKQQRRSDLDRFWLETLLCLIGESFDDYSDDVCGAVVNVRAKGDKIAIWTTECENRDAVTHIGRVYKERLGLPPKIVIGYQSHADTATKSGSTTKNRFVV

Cytochrome P450 2C9 = Cytochrome P450 2C9 (Homo sapiens, UniProt P11712)
Chain of Cytochrome P450 2C9 (P11712 whole entry): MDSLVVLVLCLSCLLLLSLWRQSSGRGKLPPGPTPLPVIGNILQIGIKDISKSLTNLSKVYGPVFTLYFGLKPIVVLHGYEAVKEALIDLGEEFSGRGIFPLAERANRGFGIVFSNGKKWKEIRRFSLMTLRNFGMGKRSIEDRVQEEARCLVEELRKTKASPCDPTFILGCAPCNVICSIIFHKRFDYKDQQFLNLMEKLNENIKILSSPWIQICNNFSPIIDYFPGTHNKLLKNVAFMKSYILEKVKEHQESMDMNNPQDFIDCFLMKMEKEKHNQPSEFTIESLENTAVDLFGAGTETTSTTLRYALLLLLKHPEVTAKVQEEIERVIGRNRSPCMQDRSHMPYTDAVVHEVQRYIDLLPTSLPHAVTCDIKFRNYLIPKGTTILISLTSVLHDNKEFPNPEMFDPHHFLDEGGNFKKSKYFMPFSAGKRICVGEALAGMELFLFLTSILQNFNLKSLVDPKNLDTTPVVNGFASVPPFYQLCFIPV

INS1 = test: beta cell apoptosis inhibitors, cytokine rescue, dose response, luminescence, retest (AID 449756); format: functional, cell-based; details: Rattus norvegicus;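 further: cell death triggered by IL-1 beta plus TNF-alpha plus IFN-gamma mixture; protective hits raise ATP signal compared with cytokine alone wells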
[3] = insulin promoter down-regulators in MIN6 cells, imaging, high-content screening, mouse beta cells (AID 1628); format: functional
[4] = cytotoxicity in MIN6 insulinoma cells, dose response, cytotoxicity control, cell-based, mouse insulinoma (AID 2122); format: functional;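 further: confirmatory high-throughput counterscreen run to flag cytotoxic compounds; mouse MIN-6 beta cells carrying an insulin promoter eGFP reporter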
[5] = molecular target: T2, Microphthalmia-associated transcription factor (Homo sapiens, UniProt O75030); test: TRPM1 promoter luciferase signal decrease, dose response, MITF inhibitor project, cell-based, SK-MEL-5, cherry-picked, set 3 (AID 493073); format: functional
T2 sequence (O75030 whole entry): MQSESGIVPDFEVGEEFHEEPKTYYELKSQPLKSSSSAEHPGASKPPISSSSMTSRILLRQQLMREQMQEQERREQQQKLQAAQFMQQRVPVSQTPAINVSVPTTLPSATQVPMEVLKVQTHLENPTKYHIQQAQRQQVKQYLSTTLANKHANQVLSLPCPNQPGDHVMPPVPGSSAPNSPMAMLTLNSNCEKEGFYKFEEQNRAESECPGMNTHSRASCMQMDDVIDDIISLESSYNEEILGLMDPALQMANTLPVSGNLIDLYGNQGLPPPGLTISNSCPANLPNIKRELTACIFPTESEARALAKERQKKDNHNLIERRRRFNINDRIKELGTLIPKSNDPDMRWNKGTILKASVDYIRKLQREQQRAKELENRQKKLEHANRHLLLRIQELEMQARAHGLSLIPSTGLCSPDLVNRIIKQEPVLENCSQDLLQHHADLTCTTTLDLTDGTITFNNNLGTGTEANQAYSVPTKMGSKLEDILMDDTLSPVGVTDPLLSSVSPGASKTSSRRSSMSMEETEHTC

Streptococcus = test: Group A Streptococcus viability loss, dose response, counter-screen for streptokinase expression inhibitor project, luminescence, BacTiterGlo (AID 1915); format: functional, organism-based;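 further: potency for reduction of bacterial viability or growth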
[6] = inhibitors of intracellular T. cruzi replication, confirmation, NIH3T3 host cells, beta-gal luminescence (AID 2044); format: functional, cell-based;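 further: intracellular parasites grown in NIH/3T3 mouse fibroblasts as host cells; luminescent beta-galactosidase reporter signal from transgenic T. cruzi replicating inside host cells; inhibitors lower the luminescence signal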
[7] = molecular target: T3, RNA-binding protein pos-1 (Caenorhabditis elegans, UniProt G5EF15); test: inhibitors of POS-1/mex-3 RNA binding, dose response, biochemical, fluorescence polarization (AID 1964);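 further: purified POS-1 fused to maltose binding protein made in E. coli; potency of compounds blocking POS-1 binding to fluorescent RNA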
T3 sequence (G5EF15 whole entry): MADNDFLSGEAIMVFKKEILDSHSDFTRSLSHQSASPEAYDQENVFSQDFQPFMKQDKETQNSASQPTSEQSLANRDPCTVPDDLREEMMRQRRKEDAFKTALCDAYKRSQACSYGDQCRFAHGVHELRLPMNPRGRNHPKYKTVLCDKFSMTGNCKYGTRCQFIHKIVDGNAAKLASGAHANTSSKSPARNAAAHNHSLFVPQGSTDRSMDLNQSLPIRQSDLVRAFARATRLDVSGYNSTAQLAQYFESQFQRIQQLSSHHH

[8] = growth suppression of PTEN-null colon cells, dose response, cell-based, HCT116 PTEN knockout (AID 1047); format: functional;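 further: HCT116 colon tumor cells with PTEN knocked out; cells exposed to compound for 60 hours before readout; potency for loss of cell viability measured by luminescence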
[9] = cytotoxicity toward NIH3T3 fibroblasts, dose response, counter-screen, cell-based, ATP luminescence, mouse fibroblasts (AID 2010); format: functional;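 further: cells exposed to compound for about 90 hours before reading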
[10] = system: Streptococcus sp. 'group A'; test: growth inhibition of control SK(-) GAS strain, dose response, counter-screen for streptokinase expression inhibitor project, luminescence, kanamycin, BacTiterGlo, confirmation (AID 1900); format: functional, organism-based
[11] = growth suppression of beta-catenin-knockout colon cells, dose response, cell-based, HCT116, human colon tumor (AID 1045); format: functional;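 further: HCT116 colon tumor cells with beta catenin knocked out; cells exposed to compound for 60 hours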
[12] = molecular target: T4, Zinc finger protein mex-5 (Caenorhabditis elegans, UniProt Q9XUB2); test: MEX-5/TCR-2 RNA interaction inhibitors, dose response, biochemical, C. elegans, fluorescence polarization (AID 1960)
T4 sequence (Q9XUB2 whole entry): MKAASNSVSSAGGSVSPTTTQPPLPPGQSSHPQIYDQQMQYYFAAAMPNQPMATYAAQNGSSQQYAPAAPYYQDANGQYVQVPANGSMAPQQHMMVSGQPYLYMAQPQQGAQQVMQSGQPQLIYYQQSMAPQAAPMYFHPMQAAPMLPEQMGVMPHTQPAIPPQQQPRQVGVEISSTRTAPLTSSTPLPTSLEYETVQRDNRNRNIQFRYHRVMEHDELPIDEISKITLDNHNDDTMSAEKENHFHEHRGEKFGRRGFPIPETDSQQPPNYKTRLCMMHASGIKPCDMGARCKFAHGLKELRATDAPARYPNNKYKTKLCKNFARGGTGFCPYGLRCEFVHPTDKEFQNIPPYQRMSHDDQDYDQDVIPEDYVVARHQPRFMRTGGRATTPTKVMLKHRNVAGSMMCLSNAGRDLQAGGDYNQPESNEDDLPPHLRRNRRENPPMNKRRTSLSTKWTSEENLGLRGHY

fMet-Leu-Phe receptor = molecular target: T5, fMet-Leu-Phe receptor (Homo sapiens, UniProt P21462); test: FPR ligands, dose response (AID 519); format: functional
T5 sequence (P21462 whole entry): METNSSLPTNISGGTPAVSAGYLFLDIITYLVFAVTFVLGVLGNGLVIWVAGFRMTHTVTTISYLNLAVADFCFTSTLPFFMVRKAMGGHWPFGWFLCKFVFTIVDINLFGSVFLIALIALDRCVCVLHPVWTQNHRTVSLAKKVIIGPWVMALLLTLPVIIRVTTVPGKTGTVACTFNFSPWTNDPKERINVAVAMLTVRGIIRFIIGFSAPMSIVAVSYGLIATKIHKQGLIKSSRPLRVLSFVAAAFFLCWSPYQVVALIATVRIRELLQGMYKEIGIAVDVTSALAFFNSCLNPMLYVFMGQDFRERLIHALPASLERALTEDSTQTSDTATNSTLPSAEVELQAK

Cytochrome P450 2D6 = Cytochrome P450 2D6 (Homo sapiens, UniProt P10635);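 further: CYP2D6 member of a cytochrome P450 panel assay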
Chain of Cytochrome P450 2D6 (P10635 whole entry): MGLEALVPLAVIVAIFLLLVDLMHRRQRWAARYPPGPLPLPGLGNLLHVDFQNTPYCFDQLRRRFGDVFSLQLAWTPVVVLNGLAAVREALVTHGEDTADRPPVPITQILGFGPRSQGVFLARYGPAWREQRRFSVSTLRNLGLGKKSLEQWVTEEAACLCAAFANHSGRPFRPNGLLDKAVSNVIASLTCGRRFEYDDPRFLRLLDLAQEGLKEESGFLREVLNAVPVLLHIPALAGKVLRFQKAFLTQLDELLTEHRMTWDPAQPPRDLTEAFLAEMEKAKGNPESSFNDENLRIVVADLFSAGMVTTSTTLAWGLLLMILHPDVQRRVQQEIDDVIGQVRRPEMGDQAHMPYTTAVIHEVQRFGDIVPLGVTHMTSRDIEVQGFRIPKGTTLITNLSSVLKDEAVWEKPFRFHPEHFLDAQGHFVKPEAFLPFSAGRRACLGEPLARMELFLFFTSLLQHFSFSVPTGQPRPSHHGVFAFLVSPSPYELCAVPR

Aminopeptidase N = molecular target: T6, Aminopeptidase N (Plasmodium falciparum FcB1/Columbia, UniProt O96935); test: P. falciparum M1AAP inhibitors, biochemical, fluorogenic H-Leu-NHMec substrate, 1536-well (AID 1445); parameters: species or system Plasmodium falciparum 3D7, 3D7
T6 sequence (O96935 whole entry): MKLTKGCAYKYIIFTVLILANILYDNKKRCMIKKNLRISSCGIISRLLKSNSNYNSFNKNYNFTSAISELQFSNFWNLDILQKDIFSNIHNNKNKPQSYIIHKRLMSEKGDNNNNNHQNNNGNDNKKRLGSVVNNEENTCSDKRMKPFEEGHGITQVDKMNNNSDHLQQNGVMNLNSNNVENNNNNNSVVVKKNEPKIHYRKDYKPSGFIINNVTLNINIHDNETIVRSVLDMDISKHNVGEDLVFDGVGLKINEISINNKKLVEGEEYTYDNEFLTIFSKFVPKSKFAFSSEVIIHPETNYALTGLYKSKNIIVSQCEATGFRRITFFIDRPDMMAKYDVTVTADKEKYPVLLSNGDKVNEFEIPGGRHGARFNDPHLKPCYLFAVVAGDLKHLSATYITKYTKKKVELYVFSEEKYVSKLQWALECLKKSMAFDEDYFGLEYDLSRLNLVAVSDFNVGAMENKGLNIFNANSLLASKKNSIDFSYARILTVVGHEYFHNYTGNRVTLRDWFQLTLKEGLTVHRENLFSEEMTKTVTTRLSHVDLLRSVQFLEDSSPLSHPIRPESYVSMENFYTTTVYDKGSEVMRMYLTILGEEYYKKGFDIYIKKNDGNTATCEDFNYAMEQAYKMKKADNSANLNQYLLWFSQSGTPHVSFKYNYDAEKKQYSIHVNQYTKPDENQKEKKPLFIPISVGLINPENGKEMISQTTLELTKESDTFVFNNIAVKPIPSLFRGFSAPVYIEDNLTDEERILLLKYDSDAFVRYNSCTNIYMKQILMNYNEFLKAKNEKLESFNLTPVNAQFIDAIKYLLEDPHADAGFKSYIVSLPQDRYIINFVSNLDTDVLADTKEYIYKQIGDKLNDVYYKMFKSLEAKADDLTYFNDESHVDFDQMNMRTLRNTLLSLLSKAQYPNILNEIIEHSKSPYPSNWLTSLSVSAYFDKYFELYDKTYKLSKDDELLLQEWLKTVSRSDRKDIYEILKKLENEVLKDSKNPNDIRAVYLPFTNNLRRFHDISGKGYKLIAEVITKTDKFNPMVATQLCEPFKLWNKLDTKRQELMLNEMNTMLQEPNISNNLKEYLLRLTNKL

Large T antigen = Large T antigen (Simian virus 40, UniProt P03070); format: functional, Betapolyomavirus macacae;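 further: Confirmatory-stage PubChem screen for compounds that inhibit SV40 T antigen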
Chain of Large T antigen (P03070 whole entry): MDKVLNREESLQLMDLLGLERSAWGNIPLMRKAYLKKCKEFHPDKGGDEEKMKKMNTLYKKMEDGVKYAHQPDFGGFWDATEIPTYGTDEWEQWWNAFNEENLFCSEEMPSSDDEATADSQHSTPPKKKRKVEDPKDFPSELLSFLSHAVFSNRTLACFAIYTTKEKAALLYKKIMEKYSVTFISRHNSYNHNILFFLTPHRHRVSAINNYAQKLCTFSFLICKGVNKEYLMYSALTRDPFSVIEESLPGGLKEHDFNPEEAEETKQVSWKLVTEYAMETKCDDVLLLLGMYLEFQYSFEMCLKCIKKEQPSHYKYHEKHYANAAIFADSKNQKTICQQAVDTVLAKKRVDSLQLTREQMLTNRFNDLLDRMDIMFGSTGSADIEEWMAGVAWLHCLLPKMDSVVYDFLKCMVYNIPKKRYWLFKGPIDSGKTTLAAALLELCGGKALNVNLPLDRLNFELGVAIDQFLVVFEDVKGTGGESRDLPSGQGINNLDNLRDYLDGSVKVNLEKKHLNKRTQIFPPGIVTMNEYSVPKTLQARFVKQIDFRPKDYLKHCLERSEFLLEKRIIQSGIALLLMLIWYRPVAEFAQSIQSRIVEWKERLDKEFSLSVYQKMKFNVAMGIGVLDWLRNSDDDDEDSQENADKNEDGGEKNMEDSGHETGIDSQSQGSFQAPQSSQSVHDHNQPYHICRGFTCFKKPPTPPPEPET

With `CCCCOC(=O)Sc1nc2ccccc2o1` the IC50 (Prothrombin) was 3.11 µM (active).

With `COc1ccc2c3ncn(CC4CCCO4)c(O)c-3nc2c1` (centres undefined) the IC50 [1] was > 100 µM (not active).

With `COC(=O)n1c(=S)oc2cc(Cl)ccc21` the IC50 [2] was > 64 µM (inactive).

In the case of `CC(O)(CS(=O)(=O)c1cccc(C(F)(F)F)c1)C(=O)Nc1cccc(C(F)(F)F)c1` (centres undefined), the AC50 (Cytochrome P450 2C9) is reported as “inconclusive”.

In the case of `O=[N+]([O-])c1cccc2c(N3CCCC3)ccnc12`, the AC50 (INS1) is reported as 3.17 µM (active), the IC50 [3] is reported as 2.41 µM (active) and the IC50 [4] is reported as 1.18 µM (active). The AC50 [5] was 2.47 µM (active).

For `COc1ccc(-n2nc(C(=O)c3cccs3)cc(-c3nc4ccccc4[nH]3)c2=N)cc1`, the EC50 (Streptococcus) was 10 µM (active), the EC50 [6] was 0.531 µM (active) and the EC50 [7] was 53.8 µM (active). For the same molecule, the EC50 [8] was 14.6 µM (active), the EC50 [9] was > 60 µM (not active) and the EC50 [10] was 3.26 µM (active). The IC50 (Prothrombin) was > 50 µM (not active), the EC50 [11] was 11.2 µM (active) and the EC50 [12] was 66.3 µM (active).

With `CCN(CC)CCCN(Cc1cc2cc3c(cc2[nH]c1=O)OCO3)C(=S)Nc1ccccc1OC` the IC50 (Prothrombin) was > 50 µM (not active).

With `COc1ccc(-c2cc(C(F)(F)F)nc(NC3CCCC3)n2)cc1OC` the Ki (fMet-Leu-Phe receptor) was > 66.7 µM (inactive) and the AC50 (Cytochrome P450 2D6) was 20 µM (inconclusive).

For `Cc1ccc(-n2c(Cc3cccn3C)nnc2SCC(=O)NCc2ccco2)cc1`, the IC50 [1] was > 100 µM (not active).

For `O=C(NC1CCCC1)c1sc(=S)n2c1[nH]c(=O)c1ccccc12`, the IC50 (Aminopeptidase N) was 35 µM (active), the Ki (fMet-Leu-Phe receptor) was 14.7 µM (active) and the IC50 (Large T antigen) was > 100 µM (active).
